The supplement of paper PMC10307832

Experiments:
Test in all cases: relative viability (nuclei count vs DMSO), 5 days (fraction); higher = more cells survive
VX-11e + Foretinib = compound: CC1=CN=C(N=C1C2=CNC(=C2)C(=O)N[C@H](CO)C3=CC(=CC=C3)Cl)NC4=C(C=C(C=C4)F)Cl [VX-11e] + COc1cc2c(Oc3ccc(NC(=O)C4(C(=O)Nc5ccc(F)cc5)CC4)cc3F)ccnc2cc1OCCCN1CCOCC1 [Foretinib] (partner 0.25 µM)
Outline: (§1)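 Relative viability divides the nuclei count in treated wells by that in vehicle wells. Lung cancer cell lines were seeded in 1536-well plates, dosed by pin tool the next day, and fixed and stained after 5 days in one step with final 0.05% Triton X-100, 1% formaldehyde and 1 ug/ml Hoechst. Dosing was a single drug or a fixed anchor-drug dose plus five library-drug doses (not always all listed) in √10 steps, and values are medians of duplicate plates imaged at 4×.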

VX-11e + Alpelisib = compound: CC1=CN=C(N=C1C2=CNC(=C2)C(=O)N[C@H](CO)C3=CC(=CC=C3)Cl)NC4=C(C=C(C=C4)F)Cl [VX-11e] + Cc1nc(NC(=O)N2CCC[C@H]2C(N)=O)sc1-c1ccnc(C(C)(C)C(F)(F)F)c1 [Alpelisib] (partner 2 µM)
Outline: as §1

VX-11e + Olaparib = compound: CC1=CN=C(N=C1C2=CNC(=C2)C(=O)N[C@H](CO)C3=CC(=CC=C3)Cl)NC4=C(C=C(C=C4)F)Cl [VX-11e] + O=C(c1cc(Cc2n[nH]c(=O)c3ccccc23)ccc1F)N1CCN(C(=O)C2CC2)CC1 [Olaparib] (partner 8 µM)
Outline: as §1

VX-11e + Pemetrexed = compound: CC1=CN=C(N=C1C2=CNC(=C2)C(=O)N[C@H](CO)C3=CC(=CC=C3)Cl)NC4=C(C=C(C=C4)F)Cl [VX-11e] + Nc1nc2[nH]cc(CCc3ccc(C(=O)N[C@@H](CCC(=O)O)C(=O)O)cc3)c2c(=O)[nH]1 [Pemetrexed] (partner 0.2 µM)
Outline: as §1

| Cell Line | relative viability (VX-11e + Foretinib; first compound 0.04 µM) | relative viability (VX-11e + Foretinib; first compound 0.1265 µM) | relative viability (VX-11e + Foretinib; first compound 0.4 µM) | relative viability (VX-11e + Foretinib; first compound 1.265 µM) | relative viability (VX-11e + Foretinib; first compound 4 µM) | relative viability (VX-11e + Alpelisib; first compound 0.1265 µM) | relative viability (VX-11e + Alpelisib; first compound 1.265 µM) | relative viability (VX-11e + Alpelisib; first compound 4 µM) | relative viability (VX-11e + Olaparib; first compound 0.1265 µM) | relative viability (VX-11e + Olaparib; first compound 0.4 µM) | relative viability (VX-11e + Olaparib; first compound 1.265 µM) | relative viability (VX-11e + Olaparib; first compound 4 µM) | relative viability (VX-11e + Pemetrexed; first compound 0.1265 µM) | relative viability (VX-11e + Pemetrexed; first compound 0.4 µM) | relative viability (VX-11e + Pemetrexed; first compound 1.265 µM) | relative viability (VX-11e + Pemetrexed; first compound 4 µM) | relative viability (VX-11e + Alpelisib; first compound 0.04 µM) | relative viability (VX-11e + Alpelisib; first compound 0.4 µM) | relative viability (VX-11e + Olaparib; first compound 0.04 µM) | relative viability (VX-11e + Pemetrexed; first compound 0.04 µM) |
| --- | --- | --- | --- | --- | --- | --- | --- | --- | --- | --- | --- | --- | --- | --- | --- | --- | --- | --- | --- | --- |
| NCI-H1993 | 0.786 | 0.818 | 0.857 | 0.734 | 0.667 | 0.673 | 0.618 | 0.649 | 1.13 | 0.895 | 0.879 | 0.785 | 0.537 | 0.457 | 0.58 | 0.521 |  |  |  |  |
| NCI-H1975 | 1.02 | 0.949 | 1.01 | 1.08 | 0.46 | 0.639 | 0.508 | 0.191 | 0.808 | 0.806 | 0.803 | 0.31 | 0.276 | 0.295 | 0.27 | 0.258 | 0.649 | 0.591 | 0.84 | 0.307 |
| LC-2-ad | 0.883 | 0.822 | 0.983 | 0.747 | 0.673 | 0.867 | 0.714 | 0.585 | 0.669 | 0.746 | 0.673 | 0.687 | 0.247 | 0.285 | 0.239 | 0.243 | 0.913 | 0.778 | 0.713 | 0.277 |
| NCI-H2085 | 0.973 | 0.951 | 0.725 | 0.835 | 0.679 | 0.88 | 0.842 | 0.699 | 0.758 | 0.709 | 0.706 | 0.598 | 0.873 | 0.81 | 0.635 | 0.583 | 1.11 | 0.913 | 0.835 | 0.862 |
| NCI-H2347 | 0.761 | 0.877 | 0.46 | 0.67 | 0.652 | 0.991 | 0.618 | 0.379 | 0.6 | 0.636 | 0.518 | 0.36 | 0.442 | 0.423 | 0.389 | 0.368 | 1.15 | 1 | 0.585 | 0.412 |
| HCC-78 |  | 0.54 | 0.542 | 0.514 | 0.496 | 0.348 | 0.276 | 0.312 | 0.639 | 0.834 | 0.963 | 0.754 | 0.859 | 0.884 | 0.858 | 0.919 | 0.313 | 0.381 | 0.852 | 0.938 |
| SW 1573 | 0.947 | 0.902 | 0.78 | 0.86 | 0.708 | 0.825 | 0.59 | 0.39 | 0.472 | 0.453 | 0.398 | 0.23 | 0.88 | 0.703 | 0.559 | 0.393 | 0.791 | 0.767 | 0.551 |  |
| LK-2 | 1.1 | 1.3 | 1.18 | 0.643 | 0.817 | 1.06 |  | 0.543 | 0.783 | 0.676 | 0.657 | 0.45 | 0.269 | 0.145 | 0.183 | 0.16 |  | 1.21 | 0.688 | 0.171 |
| NCI-H1793 | 0.589 | 0.603 |  | 0.748 | 0.411 | 0.519 | 0.539 | 0.301 | 0.788 |  | 0.751 | 0.313 | 0.715 |  | 0.591 | 0.259 |  |  |  |  |
| NCI-H1437 | 1.27 | 1.25 | 1.32 | 1.36 | 0.677 | 0.869 | 0.642 | 0.247 | 0.619 | 0.653 | 0.529 | 0.476 | 0.274 | 0.296 | 0.257 | 0.219 | 0.996 | 0.891 | 0.621 | 0.331 |
| HOP-62 | 1.22 | 1.03 | 1.16 | 0.859 | 0.589 | 0.921 | 0.866 | 0.502 | 0.248 | 0.174 | 0.304 | 0.24 | 0.264 | 0.277 | 0.192 | 0.22 | 1.05 | 0.892 | 0.668 | 0.348 |
| HCC-15 | 1.07 | 0.897 |  | 0.558 | 0.357 | 0.878 | 0.408 | 0.165 | 0.794 |  | 0.541 | 0.398 | 0.232 | 0.22 | 0.197 | 0.15 | 0.902 | 0.753 | 0.869 | 0.227 |
| NCI-H520 | 0.746 | 0.715 | 0.69 | 0.919 | 0.569 | 0.939 | 0.982 | 0.619 | 0.327 | 0.326 | 0.298 | 0.271 | 0.738 | 0.716 | 0.65 | 0.478 | 0.919 | 0.863 | 0.383 | 0.752 |
| NCI-H322M | 0.924 | 0.748 | 0.981 | 0.763 | 0.659 |  | 0.729 | 0.53 | 0.71 | 0.525 | 0.752 | 0.54 | 0.658 | 0.641 | 0.497 | 0.594 | 0.709 | 0.82 | 0.705 | 0.623 |
| NCI-H2009 | 1.33 | 1.18 | 1.06 | 0.857 | 0.509 | 1.1 | 0.571 | 0.285 | 0.635 | 0.805 | 0.769 | 0.378 | 1.03 | 1.12 | 1.1 | 0.673 | 1.2 | 1.07 | 0.684 | 1.08 |
| CAL-12T | 1.1 | 1.03 | 1.07 | 1.07 | 0.561 | 1.03 | 0.898 | 0.295 | 0.718 | 0.732 | 0.618 | 0.316 | 1.36 | 1.19 | 1.02 | 0.438 | 1.4 | 1.07 | 0.802 | 1.28 |
| A-427 | 1.14 | 1.01 | 0.835 | 0.805 | 0.342 | 1.06 | 0.667 | 0.239 | 0.778 | 0.816 | 0.7 | 0.509 | 0.983 | 1.1 | 0.966 | 0.606 | 0.962 | 0.878 | 0.778 | 1.02 |
